Reference: patent US11059830B2, “Compounds that participate in cooperative binding and uses thereof” (Revolution Medicines, Inc., priority 2015, dated 2021)

Columns and labels:
[1] = target: CEP25011.4 (residues 2134-2231) (Homo sapiens (Human), UniProt P62942+Q9BV73); assay: ITC binding of FKBP12-compound binary complex to CEP250
Protocol: (§1) This protocol utilizes Isothermal Titration Calorimetry (ITC) to directly measure the heat change associated with binding of FKBP12-Compound 2 and FKBP12-Compound 6 binary complexes to CEP250. Measurement of the heat change allows accurate determination of association constants (Ka), reaction stoichiometry (N), and the change in binding enthalpy (ΔH).
(§2) Compound 2 and Compound 6 in 100% DMSO (in-house), Protein Buffer (10 mM HEPES, pH 7.5, 75 mM NaCl, 0.5 mM TCEP), assay buffer (protein buffer+1% DMSO), FKBP12 (in-house), CEP25029.4 (residues 1982-2231) and CEP25011.4 (residues 2134-2231) (in-house).
(§3) MicroCal™ ITC200 (GE Healthcare) Experimental Protocol: FKBP12 stock solution was diluted to 10 μM in assay buffer (1% DMSO final). Compound was added to FKBP12 to 20 μM (1% DMSO final), and binary complex was filled into the reaction cell of the ITC device after 5-10 min pre-incubation time. CEP250 protein stocks were diluted to 50 μM in assay buffer and supplemented with 20 μM compound (1% DMSO final) before being filled into the injection syringe. A control experiment in the absence of compound was also run to determine the heat associated with operational artifacts and the dilution of titrant as it was injected from the syringe into the reaction cell.

[2] = target: CEP25029.4 (residues 1982-2231) (Homo sapiens (Human), UniProt P62942+Q9BV73); assay: as above
Protocol: as §1, §2, §3

Sequence of CEP25011.4 (residues 2134-2231) (Q9BV73 2134-2231): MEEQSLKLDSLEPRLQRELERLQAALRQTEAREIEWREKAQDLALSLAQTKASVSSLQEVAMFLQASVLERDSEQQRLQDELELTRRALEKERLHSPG
Sequence of CEP25011.4 (residues 2134-2231) (P62942 whole entry, the tested form may be a part): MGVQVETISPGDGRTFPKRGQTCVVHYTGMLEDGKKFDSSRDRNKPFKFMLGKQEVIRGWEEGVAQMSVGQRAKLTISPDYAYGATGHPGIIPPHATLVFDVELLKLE
Sequence of CEP25029.4 (residues 1982-2231) (Q9BV73 1982-2231): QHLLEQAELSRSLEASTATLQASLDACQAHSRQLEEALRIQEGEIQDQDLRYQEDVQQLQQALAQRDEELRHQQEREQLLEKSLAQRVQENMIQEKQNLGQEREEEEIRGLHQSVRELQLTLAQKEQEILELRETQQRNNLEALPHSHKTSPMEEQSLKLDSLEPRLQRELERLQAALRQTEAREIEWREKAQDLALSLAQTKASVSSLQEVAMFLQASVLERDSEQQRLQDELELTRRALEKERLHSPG
Sequence of CEP25029.4 (residues 1982-2231) (P62942 whole entry, the tested form may be a part): as the sequence (P62942 whole entry, the tested form may be a part) above

## CC[C@H](Cc1ccccc1)[C@@H]1/C=C/C/C=C/C[C@@H](C)[C@H](O)[C@@H](C)[C@@H]2CC[C@@H](C)C(=O)C(O)(O2)C(=O)N2CCCC[C@H]2C(=O)O1 [Compound 2]
[1]
  Kd: 70 nM
[1]; ITC, FKBP12 10 μM in cell, CEP25011.4 68 μM in syringe, ligand 20 μM, 298 K
  ΔH: -11.8 kcal/mol
[1]; ITC, FKBP12 10 μM, CEP25011.4 68 μM, ligand 20 μM, 298 K, ΔG = −RT ln Ka
  ΔG: -9.739 kcal/mol
[1]; ITC, FKBP12 10 μM, CEP25011.4 68 μM, ligand 20 μM, 298 K, −TΔS = ΔG − ΔH
  −T*ΔS: 2.06 kcal/mol
[2]
  Kd: 190 nM
[2]; ITC, FKBP12 10 μM in cell, CEP25029.4 118 μM in syringe, ligand 20 μM, 298 K
  ΔH: -12.48 kcal/mol
[2]; ITC, FKBP12 10 μM, CEP25029.4 118 μM, ligand 20 μM, 298 K, ΔG = −RT ln Ka
  ΔG: -9.18 kcal/mol
[2]; ITC, FKBP12 10 μM, CEP25029.4 118 μM, ligand 20 μM, 298 K, −TΔS = ΔG − ΔH
  −T*ΔS: 3.298 kcal/mol
